Values of other authors, collected in patent US6280768A, “Berberine alkaloids as a treatment for chronic protozoally induced diarrhea” (PRM Pharmaceuticals, Inc., priority 1997, dated 2001).

Legend:
[1] = tested on: microsporidia; settings: some AIDS patients; cited from earlier work
[2] = tested on: Enterocytozoon bieneusi; settings: cited from earlier work
[3] = tested on: microsporidiosis; settings: cited from earlier work
[4] = tested on: E. bieneusi; settings: cited from earlier work
[5] = tested on: E. intestinalis; settings: cited from earlier work

CCCSc1ccc2nc(NC(=O)OC)[nH]c2c1 [albendazole]
relief of diarrhea [1]: temporarily relieve the diarrhea of some AIDS patients | reduction in parasite load ([2]; after oral treatment): no significant reduction in parasite load | changes in the parasite ([2]; human, in vivo): degenerative changes in the parasite | patients relapsed within one month ([2]; human, in vivo): Four of five patients relapsed within one month | relapse of the fifth patient ([2]; human, in vivo): the fifth patient relapsed within two months | resolution of chronic diarrhea ([2]; six AIDS patients): effective in resolving the chronic diarrhea of six AIDS patients | remission of diarrhea ([3]; 18 AIDS patients): 70% | arrest of parasite development ([3]; human, in vivo): did not completely arrest development | rate of parasite reproduction ([3]; interfering with tubulin polymerization): slow the rate of parasite reproduction | parasite load ([3]; patients who responded): reduction in parasite load in those patients who responded | E. bieneusi spores in small bowel biopsies ([4]; following treatment): spores were still present | symptoms and parasite burden ([4]; some of 29 patients): improved symptoms and reduced the parasite burden in some of their 29 patients | clearing E. intestinalis from the stools ([5]; five AIDS patients): initially effective in clearing E. intestinalis from the stools | patients with spores of E. intestinalis again detected in stools ([5]; followed for more than one month): two of four patients | duration of relief ([5]; human, in vivo): relief was only temporary | relapse during maintenance therapy ([5]; human, in vivo): Relapse occurred in one patient
